Results from ChEMBL document CHEMBL4813957, “Antitubercular properties of thiazolidin-4-ones - A review” (Eur J Med Chem, 2021).
Converted amounts (≈) assume the structure as drawn.

test system: Mycobacterium tuberculosis; test: Antimycobacterial activity against Mycobacterium tuberculosis H37Ra ATCC 25177 incubated for 7 days by microplate alamar blue assay; format: functional; conditions: H37Ra ATCC 25177, 168 h, time 7 day

SMILES	MIC
COc1cc(/C=N/NC(=S)Nc2cccc(Cl)c2)ccc1OC(=O)/C=C1\SC(=O)NC1=O	2 µg/mL (≈ 4.07 µM)

test system: Mycobacterium tuberculosis; test: Antimycobacterial activity against Mycobacterium tuberculosis H37Rv ATCC 27294 incubated for 5 days by microplate alamar blue assay; format: functional; conditions: H37Rv ATCC 27294, 120 h, time 5 day

SMILES	MIC
COc1ccc(C2SCC(=O)N2NC(=O)c2ccncc2)cc1 (stereo unspecified)	1.25 µg/mL (≈ 3.79 µM)
O=C(NN1C(=O)CSC1c1ccccc1O)c1ccncc1 (stereo unspecified)	0.62 µg/mL (≈ 1.97 µM)
O=C(NN1C(=O)CSC1c1ccc([N+](=O)[O-])cc1)c1ccncc1 (stereo unspecified)	3.12 µg/mL (≈ 9.06 µM)
COc1cc(C2SCC(=O)N2NC(=O)c2ccncc2)ccc1O (stereo unspecified)	0.31 µg/mL (≈ 0.898 µM)
CN(C)c1ccc(C2SCC(=O)N2NC(=O)c2ccncc2)cc1 (stereo unspecified)	5 µg/mL (≈ 14.6 µM)
O=C(NN1C(=O)CSC1c1ccco1)c1ccncc1 (stereo unspecified)	1.25 µg/mL (≈ 4.32 µM)

test system: Mycobacterium tuberculosis; test: Antimycobacterial activity against Mycobacterium tuberculosis H37Ra; format: functional; conditions: not given

SMILES	MIC
O=C1NC(=S)S/C1=C\c1ccccc1O	95 µg/mL (≈ 400 µM)
O=C1NC(=S)S/C1=C\c1ccc(/N=N/c2ccccc2)cc1O	95 µg/mL (≈ 278 µM)
CCOC(=O)C(C(C)C)N1C(=O)C(C)SC1c1ccc2c(c1)c1ccccc1n2CC (stereo unspecified)	25 µg/mL (≈ 57 µM)
Cc1ccccc1/N=N/c1ccc(/C=C2\SC(=S)NC2=O)c(O)c1	95 µg/mL (≈ 267 µM)
COc1ccc(/N=N/c2ccc(/C=C3\SC(=S)NC3=O)c(O)c2)cc1	95 µg/mL (≈ 256 µM)
Cc1ccc(/N=N/c2ccc(/C=C3\SC(=S)NC3=O)c(O)c2)cc1	95 µg/mL (≈ 267 µM)
CCOC(=O)C(C(C)C)N1C(=O)C(C)SC1c1cccc(OC)c1O (stereo unspecified)	25 µg/mL (≈ 68 µM)
O=C1NC(=S)S/C1=C\c1c(O)ccc2ccccc12	95 µg/mL (≈ 331 µM)

test system: Mycobacterium tuberculosis; test: Antimycobacterial activity against Mycobacterium tuberculosis H37Rv ATCC27294 incubated for 7 days by microplate alamar blue assay; format: functional; conditions: H37Rv ATCC 27294, 168 h, time 7 day

SMILES	MIC
COc1cccc(C2SCC(=O)N2NC(=O)c2cc(O)c(O)c(O)c2)c1O (stereo unspecified)	0.79 µg/mL (≈ 2.01 µM)
O=C(NN1C(=O)CSC1c1ccccc1)c1cc(O)c(O)c(O)c1 (stereo unspecified)	0.79 µg/mL (≈ 2.28 µM)
O=C(NN1C(=O)CSC1c1cccc(O)c1)c1cc(O)c(O)c(O)c1 (stereo unspecified)	0.79 µg/mL (≈ 2.18 µM)
O=C(NN1C(=O)CSC1c1ccccc1O)c1cc(O)c(O)c(O)c1 (stereo unspecified)	0.79 µg/mL (≈ 2.18 µM)
O=C(NN1C(=O)CSC1c1ccc(O)cc1)c1cc(O)c(O)c(O)c1 (stereo unspecified)	0.79 µg/mL (≈ 2.18 µM)
O=C(NN1C(=O)CSC1c1ccccc1Cl)c1cc(O)c(O)c(O)c1 (stereo unspecified)	0.79 µg/mL (≈ 2.07 µM)

test system: Mycobacterium tuberculosis; test: Antimycobacterial activity against Mycobacterium tuberculosis H37Rv measured after 21 days by test tube dilution technique; format: functional; conditions: 504 h, time 21 day

SMILES	MIC
CC(C)N1C(=O)CS/C1=N/NC(=O)COc1cnccn1	> 100 µg/mL
CC(C)(C)N1C(=O)CS/C1=N/NC(=O)COc1cnccn1	> 100 µg/mL
CCOc1ccc(N2C(=O)CS/C2=N/NC(=O)COc2cnccn2)cc1	> 100 µg/mL
O=C(COc1cnccn1)N/N=C1/SCC(=O)N1c1ccc(Cl)cc1Cl	> 100 µg/mL
CCCCN1C(=O)CS/C1=N/NC(=O)COc1cnccn1	> 100 µg/mL
O=C(COc1cnccn1)N/N=C1/SCC(=O)N1c1ccc(Cl)cc1[N+](=O)[O-]	89 µg/mL (≈ 210 µM)
O=C(COc1cnccn1)N/N=C1/SCC(=O)N1c1ccc(Cl)cc1	> 100 µg/mL

test system: Mycolicibacterium smegmatis; test: Antimycobacterial activity against Mycobacterium smegmatis ATCC 35797 incubated for 48 hrs by agar dilution method; format: functional; conditions: not given

SMILES	MIC
CCCCCCCCCCCC1SCC(=O)N1NC(=O)c1ccncc1 (stereo unspecified)	6 µg/mL (≈ 15.9 µM)
CCC1SCC(=O)N1NC(=O)c1ccncc1 (stereo unspecified)	> 100 µg/mL
CCCCCCCC1SCC(=O)N1NC(=O)c1ccncc1 (stereo unspecified)	> 25 µg/mL
CCCCCCCCCC1SCC(=O)N1NC(=O)c1ccncc1 (stereo unspecified)	25 µg/mL (≈ 71.5 µM)
CCCCCCCCCCC1SCC(=O)N1NC(=O)c1ccncc1 (stereo unspecified)	25 µg/mL (≈ 68.8 µM)

test system: Mycobacterium tuberculosis; test: Antimycobacterial activity against Mycobacterium tuberculosis H37Rv assessed as bacterial inhibition at 25 ug/ml by microplate alamar blue assay relative to control; format: functional; conditions: not given

SMILES	inhibition at 25 µg/mL
CCCCCCCCCCCCN1C(=O)C(CC(=O)O)SC12CCCCC2 (stereo unspecified)	97%
CCCCCCCCCCCCN1C(=O)C(CC(=O)O)SC12CCC(C(C)(C)C)CC2 (stereo unspecified)	96%
CCCCCCCCCCCCN1C(=O)C(CC(=O)O)SC12CCCC2 (stereo unspecified)	97%
CCCCCCCCCCCCN1C(=O)C(CC(=O)O)SC12CCN(C(=O)C(N)CCCCN)CC2 (stereo unspecified)	96%
CCCCCCCCCCCCN1C(=O)C(CC(=O)O)SC12CCN(C(=O)OC(C)(C)C)CC2 (stereo unspecified)	96%
CCCCCCCCN1C(=O)CSC12CCCCC2	96%
CCCCCCCCCCCCN1C(=O)C(CC(=O)O)SC12CCN(C(=O)C(N)C(C)CC)CC2 (stereo unspecified)	97%
CCCCCCCCCCCCN1C(=O)C(CC(=O)O)SC12CCCCCC2 (stereo unspecified)	96%
CCCCCCCCCCCCN1C(=O)C(CC(=O)O)SC12CCCCCCCC2 (stereo unspecified)	96%

test system: Mycobacterium tuberculosis; test: Antimycobacterial activity against Mycobacterium tuberculosis H37Rv assessed as growth inhibition at 6.25 ug/ml by microplate alamar blue assay relative to control; format: functional; conditions: read-out: GI

SMILES	inhibition of growth at 6.25 µg/mL
N#Cc1ccc(C2SCC(=O)N2NC(=O)C(O)(c2ccccc2)c2ccccc2)cc1 (stereo unspecified)	98%
O=C1CSC(c2ccc(Cl)cc2)N1NC(=O)C(O)(c1ccccc1)c1ccccc1 (stereo unspecified)	99%
CC1SC(c2ccc(C#N)cc2)N(NC(=O)C(O)(c2ccccc2)c2ccccc2)C1=O (stereo unspecified)	99%
CC1SC(c2ccc(OCc3ccccc3)cc2)N(NC(=O)C(O)(c2ccccc2)c2ccccc2)C1=O (stereo unspecified)	98%
CC1SC(c2ccc(Cl)cc2)N(NC(=O)C(O)(c2ccccc2)c2ccccc2)C1=O (stereo unspecified)	99%
O=C1CSC(c2ccc(OCc3ccccc3)cc2)N1NC(=O)C(O)(c1ccccc1)c1ccccc1 (stereo unspecified)	98%

test system: Mycobacterium tuberculosis; test: Antimycobacterial activity against Mycobacterium tuberculosis H37Rv incubated for 7 days by microplate alamar blue assay; format: functional; conditions: 168 h, time 7 day

SMILES	MIC
O=C(O)c1cn(C2CC2)c2cc(N3CCNCC3)c(F)cc2c1=O [CIPROFLOXACIN]	3.12 µg/mL (≈ 9.42 µM)
COc1ccc(C2SCC(=O)N2c2n[nH]c(=S)s2)cc1 (stereo unspecified)	6.25 µg/mL (≈ 19.2 µM)
Cc1ccc(C2SCC(=O)N2c2n[nH]c(=S)s2)cc1 (stereo unspecified)	12.5 µg/mL (≈ 40.4 µM)
O=C1CSC(c2ccc(O)cc2)N1c1nnc(S)s1 (stereo unspecified)	12.5 µg/mL (≈ 40.1 µM)
COc1ccc(C2SCC(=O)N2c2nnc(S)s2)cc1OC (stereo unspecified)	1.6 µg/mL (≈ 4.5 µM)

test system: Mycobacterium tuberculosis; test: Antimycobacterial activity against Mycobacterium tuberculosis H37Rv measured after 14 days by test tube dilution technique; format: functional; conditions: 336 h, time 14 day

SMILES	MIC
CC(C)N1C(=O)CS/C1=N/NC(=O)COc1cnccn1	> 100 µg/mL
CC(C)(C)N1C(=O)CS/C1=N/NC(=O)COc1cnccn1	> 100 µg/mL
CCOc1ccc(N2C(=O)CS/C2=N/NC(=O)COc2cnccn2)cc1	> 100 µg/mL
O=C(COc1cnccn1)N/N=C1/SCC(=O)N1c1ccc(Cl)cc1Cl	> 100 µg/mL
CCCCN1C(=O)CS/C1=N/NC(=O)COc1cnccn1	> 100 µg/mL
O=C(COc1cnccn1)N/N=C1/SCC(=O)N1c1ccc(Cl)cc1[N+](=O)[O-]	85 µg/mL (≈ 201 µM)
O=C(COc1cnccn1)N/N=C1/SCC(=O)N1c1ccc(Cl)cc1	> 100 µg/mL

test system: Mycobacterium tuberculosis; test: Antimycobacterial activity against Mycobacterium tuberculosis H37Rv incubated for 5 days by microplate alamar blue assay; format: functional; conditions: 120 h, time 5 day

SMILES	MIC
O=C(O)c1cn(C2CC2)c2cc(N3CCNCC3)c(F)cc2c1=O [CIPROFLOXACIN]	3.12 µg/mL (≈ 9.42 µM)

test system: Mycobacterium tuberculosis; test: Antimycobacterial activity against Mycobacterium tuberculosis H37Rv by microplate alamar blue assay; format: functional; conditions: not given

SMILES	MIC
O=C(O)c1cn(C2CC2)c2cc(N3CCNCC3)c(F)cc2c1=O [CIPROFLOXACIN]	3.12 µg/mL (≈ 9.42 µM)

test system: Mycobacterium tuberculosis; test: Antimycobacterial activity against Mycobacterium tuberculosis H37Rv by Lowenstein-Jensen method relative to control; format: functional; conditions: not given

SMILES	MIC
O=C(NCCCNc1ncc([N+](=O)[O-])s1)N1C(=O)/C(=C/c2cccc(Cl)c2)SC1c1cccc(Cl)c1 (stereo unspecified)	2.75 µg/mL (≈ 4.87 µM)
O=C(NCCCNc1ncc([N+](=O)[O-])s1)N1C(=O)/C(=C/c2ccccc2Cl)SC1c1ccccc1Cl (stereo unspecified)	2.5 µg/mL (≈ 4.43 µM)
O=C(NCCCNc1ncc([N+](=O)[O-])s1)N1C(=O)/C(=C/c2cccc(Br)c2)SC1c1cccc(Br)c1 (stereo unspecified)	2.75 µg/mL (≈ 4.21 µM)
O=C(NCCCNc1ncc([N+](=O)[O-])s1)N1C(=O)/C(=C/c2ccc(Cl)cc2)SC1c1ccc(Cl)cc1 (stereo unspecified)	2.5 µg/mL (≈ 4.43 µM)
O=C(NCCCNc1ncc([N+](=O)[O-])s1)N1C(=O)/C(=C/c2cccc([N+](=O)[O-])c2)SC1c1cccc([N+](=O)[O-])c1 (stereo unspecified)	2.5 µg/mL (≈ 4.27 µM)
O=C(NCCCNc1ncc([N+](=O)[O-])s1)N1C(=O)/C(=C/c2ccccc2[N+](=O)[O-])SC1c1ccccc1[N+](=O)[O-] (stereo unspecified)	2.75 µg/mL (≈ 4.7 µM)
O=C(NCCCNc1ncc([N+](=O)[O-])s1)N1C(=O)/C(=C/c2ccccc2)SC1c1ccccc1 (stereo unspecified)	12.5 µg/mL (≈ 25.2 µM)
O=C(NCCCNc1ncc([N+](=O)[O-])s1)N1C(=O)/C(=C/c2ccc(Br)cc2)SC1c1ccc(Br)cc1 (stereo unspecified)	2.75 µg/mL (≈ 4.21 µM)
O=C(NCCCNc1ncc([N+](=O)[O-])s1)N1C(=O)/C(=C/c2ccc([N+](=O)[O-])cc2)SC1c1ccc([N+](=O)[O-])cc1 (stereo unspecified)	2.5 µg/mL (≈ 4.27 µM)
O=C(NCCCNc1ncc([N+](=O)[O-])s1)N1C(=O)/C(=C/c2ccccc2Br)SC1c1ccccc1Br (stereo unspecified)	6.25 µg/mL (≈ 9.57 µM)

test system: Mycobacterium tuberculosis; test: Antimycobacterial activity against Mycobacterium tuberculosis H37Ra 7131 incubated for 21 days by broth dilution method; format: functional; conditions: H37Ra 7131, 504 h, time 21 day

SMILES	MIC
N=C1S/C(=C\c2ccccc2)C(=O)N1NC(=O)c1ccncc1	12 µg/mL (≈ 37 µM)
Cc1ccc(/C=C2\SC(=N)N(NC(=O)c3ccncc3)C2=O)cc1	13 µg/mL (≈ 38.4 µM)
C=CC/N=C1\SC(=O)C(=O)N1NC(=O)c1ccncc1	19.5 µg/mL (≈ 67.2 µM)
N=C1SC(Br)(C(Br)c2ccccc2)C(=O)N1NC(=O)c1ccncc1 (stereo unspecified)	13 µg/mL (≈ 26.8 µM)
N=C1SC(Br)(C(Br)c2ccc([N+](=O)[O-])cc2)C(=O)N1NC(=O)c1ccncc1 (stereo unspecified)	11 µg/mL (≈ 20.8 µM)
CC/N=C1\SC(=O)C(=O)N1NC(=O)c1ccncc1	19.5 µg/mL (≈ 70.1 µM)
Cc1ccc(/N=C2\SC(=O)C(=O)N2NC(=O)c2ccncc2)cc1	78 µg/mL (≈ 229 µM)
Cc1cccc(/N=C2\SC(=O)C(=O)N2NC(=O)c2ccncc2)c1	19.5 µg/mL (≈ 57.3 µM)

test system: Mycobacterium tuberculosis; test: Antimycobacterial activity against Mycobacterium tuberculosis H37Rv; format: functional; conditions: not given

SMILES	MIC
COc1cc(-c2cc(-c3ccc(Cl)cc3)nc(NC(=O)NN3C(=O)CSC3c3ccccc3[N+](=O)[O-])n2)cc(OC)c1OC (stereo unspecified)	100 µg/mL (≈ 157 µM)
C/C(=N\N1C(=O)CSC1c1ccc(O)cc1)c1oc2ccc(Cl)cc2c1C (stereo unspecified)	25 µg/mL (≈ 62.4 µM)
COc1cc(-c2cc(-c3ccc(Cl)cc3)nc(NC(=O)NN3C(=O)CSC3c3ccccc3O)n2)cc(OC)c1OC (stereo unspecified)	100 µg/mL (≈ 164 µM)
COc1ccc(C2SCC(=O)N2NC(=O)Nc2nc(-c3ccc(Cl)cc3)cc(-c3cc(OC)c(OC)c(OC)c3)n2)cc1 (stereo unspecified)	100 µg/mL (≈ 161 µM)
O=C1/C(=C/c2ccccc2Cl)SC(c2ccccc2Cl)N1NCCNc1ncc([N+](=O)[O-])s1 (stereo unspecified)	25 µg/mL (≈ 47.9 µM)
O=C1/C(=C/c2ccc([N+](=O)[O-])cc2)SC(c2ccc([N+](=O)[O-])cc2)N1NCCNc1ncc([N+](=O)[O-])s1 (stereo unspecified)	25 µg/mL (≈ 46 µM)
